In general, IC50 refers to the concentration needed to halve the response being measured.

In assay [1] the target is T1, human full length PIK3KA H1047R mutant (p110α/p85α complex) (Homo sapiens, UniProt P42336, H1047R).
T1 construct: Recombinant, catalytically active human full length PIK3KA Wild-type and H1047R mutant were purchased; 6xHis (N); purchased EMD Millipore Sigma 14-792M
Nature of the assay: PI3K-Alpha Kinase (PIK3CA) biochemical activity, H1047R mutant (ADP-Glo). As to conditions: Soy PI lipid substrate, 20 uM ATP. The method in brief:
(§1)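 ADP formation, measured by ADP-Glo luminescence after reaction to about 10% ATP conversion at 27° C., gives 10-point 4-parameter IC50 curves normalized to no-enzyme and DMSO controls. Lipid substrate was PIP2diC8 or Soy PI at 50 uM, with 20 uM ATP. WT or H1047R p110α/p85α complex (1-5 nM) was preincubated 1 h with compound.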
(ADP-Glo first removes unused ATP, then detects ADP through luciferase.)

In assay [2] the target is T2, human full length PIK3KA Wild-type (p110α/p85α complex) (Homo sapiens, UniProt P42336).
T2 construct: Recombinant, catalytically active human full length PIK3KA Wild-type and H1047R mutant were purchased; 6xHis (N); purchased EMD Millipore Sigma 14-602M
Kind of assay: PI3K-Alpha Kinase (PIK3CA) biochemical activity, wild-type (ADP-Glo). To be noted: Soy PI lipid substrate, 20 uM ATP. In outline: as §1

Assay [3] has as its target PI3K-α (PIK3CA) in MDA-MB-453 cells (Homo sapiens, UniProt P42336). Nature of the assay: PI3K-Alpha Kinase (PIK3CA) activity in vitro cell based assay (AlphaLisa SureFire). The method, then: PI3K-Alpha Kinase (PIK3CA) Activity In Vitro Cell Based Assay and Determining IC50 Values for Inhibitors
The MDA-MB-453 (ATCC-HTB-131) cell line was obtained from the American Type Culture Collection (Manassas, Va.). Cells were maintained in Dulbecco's Modified Eagle Media (DMVEM, Gibco 11965-092) supplemented with 10% Fetal Bovine Serum, heat inactivated (FBS HI, Gibco 10082-147), 1× non-essential amino acids (NEAA, Gibco 11140-050), and 1 mM sodium pyruvate (Gibco 11360-070). Cultures were maintained in a humidified incubator at 37° C. under […].
For compound testing in 0% FBS, MDA-MB-453 cells were seeded at a density of 1.5×10^4 cells per well in white 384-well plates in 20 μl of Minimum Essential Media (MEM) assay media with 1×NEAA, 1 mM sodium pyruvate, and 1 μg/mL human insulin (Sigma I9278). Compounds dissolved in 10 mM stock solutions in DMSO were serially diluted 1:3 in DMSO to generate a 10-point dilution series and plated using an acoustic liquid handler system (Echo 550 Series Liquid Handler, Labcyte). A 5× intermediate compound dilution plate in MEM with 1×NEAA and 1 mM sodium pyruvate (150 μM starting compound concentration in 1.5% DMSO) was then prepared. Five μl of the intermediate serially diluted compounds were added to the cell plate to final concentrations ranging from […] in 0.3% DMSO. 0.3% DMSO alone was used to establish the maximum (MAX) signal and GDC-0032 at a final concentration of 1 μM was used as a reference compound for the minimum (MIN) signal. After 3 hours treatment, the medium was removed, and the cells lysed in 10 μL of 1× SureFire Lysis buffer with shaking for 10 minutes at room temperature. The Acceptor Mix (Reaction Buffer 1+Reaction Buffer 2+Activation Buffer+SureFire Ultra Acceptor Beads) was prepared by diluting Activation buffer 25-fold in combined Reaction Buffer 1 and Reaction Buffer 2. The Acceptor beads were diluted 50-fold in the combined Reaction Buffers. Five μL of Acceptor Mix was added to each well, the plate was sealed and covered with foil and incubated for 1 hour at room temperature. The Donor Mix (dilution buffer+SureFire Ultra Donor Beads) was prepared by diluting Donor Beads 50-fold in dilution buffer. Five μL of the Donor Mix was added to each well and the plate sealed and covered with foil and incubated for 1 hour at room temperature in the dark. The plates were read on a Neo2 plate reader instrument from Biotek using standard AlphaLisa settings.
Compounds were tested in duplicate and the average % inhibition at each compound concentration was used to generate a single dose response curve. The data were processed using the Genedata-Screener tool. Relative IC50 values were determined using luminescence units by calculating percent inhibition with respect to the in-plate “MIN” (GDC-0032 reference control) and “MAX” (DMSO) controls. The data was analyzed using a 4-parameter nonlinear logistic equation (four-parameter logistic concentration-response curve):
Y=bottom+[(top−bottom)/1+(X/IC50)slope]
where Y=% inhibition, X=concentration of inhibitor, bottom=minimum value of y attained by curve-fit, top=maximum value of y attained by curve-fit and slope=steepness of curve at the IC50.
% Inhibition=[(signal at X−median Min)/(median Max−median Min)]×100
IC50: concentration of compound that reduces a given response (ligand binding, enzyme response) by 50%. Relative IC50: concentration giving half the compound's maximum response.
For IC50 values shown in Table B, “A” means IC50<50 nM; “B” means IC50 ranging between 50 nM and 100 nM; “C” means IC50 ranging between 100 nM and 500 nM; “D” means IC50>500 nM.
A general note: Alpha assays give light when donor and acceptor beads are brought close together.

Setting [4] is: read-out: PI3K-α (PIK3CA) in vitro cell based assay IC50, 0% FBS, 3 hours treatment.

Structures are written as SMILES. Like-named read-outs stand apart in the source and are kept apart here. Some results are limits rather than exact numbers.

Chain of PI3K-α (PIK3CA) in MDA-MB-453 cells (P42336 whole entry): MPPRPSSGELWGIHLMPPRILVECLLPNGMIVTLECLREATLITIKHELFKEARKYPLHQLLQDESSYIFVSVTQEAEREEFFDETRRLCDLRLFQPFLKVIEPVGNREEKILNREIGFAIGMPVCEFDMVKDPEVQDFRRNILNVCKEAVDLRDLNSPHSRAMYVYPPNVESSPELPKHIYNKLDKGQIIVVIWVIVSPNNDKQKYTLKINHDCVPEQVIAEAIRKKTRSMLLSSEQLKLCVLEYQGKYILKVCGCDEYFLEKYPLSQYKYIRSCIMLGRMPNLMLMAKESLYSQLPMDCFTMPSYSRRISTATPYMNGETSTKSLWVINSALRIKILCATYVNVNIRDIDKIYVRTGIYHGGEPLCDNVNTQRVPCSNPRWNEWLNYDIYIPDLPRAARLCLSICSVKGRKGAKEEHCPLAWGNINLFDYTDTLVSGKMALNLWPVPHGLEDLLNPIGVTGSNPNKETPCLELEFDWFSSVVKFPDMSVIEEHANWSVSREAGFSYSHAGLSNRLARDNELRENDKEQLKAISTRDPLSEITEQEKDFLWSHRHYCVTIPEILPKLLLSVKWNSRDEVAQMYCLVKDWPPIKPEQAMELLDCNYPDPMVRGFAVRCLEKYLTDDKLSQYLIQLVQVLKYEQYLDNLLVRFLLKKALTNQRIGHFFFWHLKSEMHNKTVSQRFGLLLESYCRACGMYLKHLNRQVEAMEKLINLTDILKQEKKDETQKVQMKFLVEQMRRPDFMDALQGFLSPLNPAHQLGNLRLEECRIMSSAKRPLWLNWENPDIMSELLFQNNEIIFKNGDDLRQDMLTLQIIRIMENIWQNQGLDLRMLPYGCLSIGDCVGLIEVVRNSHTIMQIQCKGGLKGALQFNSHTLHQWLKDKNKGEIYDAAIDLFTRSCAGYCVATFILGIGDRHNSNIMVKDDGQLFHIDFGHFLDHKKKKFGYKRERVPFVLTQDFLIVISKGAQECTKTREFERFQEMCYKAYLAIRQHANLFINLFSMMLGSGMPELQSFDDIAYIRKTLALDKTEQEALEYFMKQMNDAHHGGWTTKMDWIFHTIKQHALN
Chain of PI3K-α (PIK3CA) in MDA-MB-453 cells (P27986 2-724, further chain): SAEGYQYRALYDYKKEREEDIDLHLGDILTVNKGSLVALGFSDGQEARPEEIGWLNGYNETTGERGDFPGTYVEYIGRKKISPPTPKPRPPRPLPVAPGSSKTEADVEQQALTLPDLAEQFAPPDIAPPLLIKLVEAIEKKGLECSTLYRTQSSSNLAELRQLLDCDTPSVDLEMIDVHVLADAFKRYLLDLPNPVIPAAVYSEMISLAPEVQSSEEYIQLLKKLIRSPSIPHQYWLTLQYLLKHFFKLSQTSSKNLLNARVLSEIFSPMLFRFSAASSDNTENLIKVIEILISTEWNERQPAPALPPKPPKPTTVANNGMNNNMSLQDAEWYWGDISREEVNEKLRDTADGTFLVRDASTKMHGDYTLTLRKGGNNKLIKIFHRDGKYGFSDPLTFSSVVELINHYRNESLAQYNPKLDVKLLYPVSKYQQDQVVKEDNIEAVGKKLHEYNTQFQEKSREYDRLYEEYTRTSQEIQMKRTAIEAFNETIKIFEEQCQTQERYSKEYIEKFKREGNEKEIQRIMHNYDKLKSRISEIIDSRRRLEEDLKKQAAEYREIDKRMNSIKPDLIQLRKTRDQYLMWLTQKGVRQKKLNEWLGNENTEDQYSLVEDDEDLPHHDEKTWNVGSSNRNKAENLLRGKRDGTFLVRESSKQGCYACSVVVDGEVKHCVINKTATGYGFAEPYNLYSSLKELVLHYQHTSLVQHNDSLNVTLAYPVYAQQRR
T1 sequence (P42336 whole entry H1047R): as the sequence (P42336 whole entry) above, with H1047R counted along it
T1 sequence (P27986 whole entry partner): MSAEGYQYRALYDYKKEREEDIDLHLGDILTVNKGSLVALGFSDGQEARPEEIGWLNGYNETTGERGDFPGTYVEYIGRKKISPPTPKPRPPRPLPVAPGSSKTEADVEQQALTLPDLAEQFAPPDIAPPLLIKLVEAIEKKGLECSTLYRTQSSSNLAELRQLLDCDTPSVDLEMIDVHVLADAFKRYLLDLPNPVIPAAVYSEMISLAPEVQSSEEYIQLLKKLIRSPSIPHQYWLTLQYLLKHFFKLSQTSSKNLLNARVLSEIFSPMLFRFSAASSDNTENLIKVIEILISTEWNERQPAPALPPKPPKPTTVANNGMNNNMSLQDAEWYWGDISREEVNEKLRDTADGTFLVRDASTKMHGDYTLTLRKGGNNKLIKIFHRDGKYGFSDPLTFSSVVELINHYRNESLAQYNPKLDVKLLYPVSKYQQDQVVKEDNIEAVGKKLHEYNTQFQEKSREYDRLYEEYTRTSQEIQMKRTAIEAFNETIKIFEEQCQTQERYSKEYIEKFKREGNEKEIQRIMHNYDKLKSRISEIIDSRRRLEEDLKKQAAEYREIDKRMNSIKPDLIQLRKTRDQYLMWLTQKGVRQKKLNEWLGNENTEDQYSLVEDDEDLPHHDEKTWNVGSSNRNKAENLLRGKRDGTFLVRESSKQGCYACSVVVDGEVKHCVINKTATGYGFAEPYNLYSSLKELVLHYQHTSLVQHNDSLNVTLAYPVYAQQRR

For `COc1ccc(-n2cc(-c3cc(=O)c4cc(C)cc(C(C)Nc5ccccc5C(=O)O)c4o3)cn2)cc1` (single isomer, unassigned) [Example 79, 2-[1-[2-[1-(4-Methoxyphenyl)pyrazol-4-yl]-6-methyl-4-oxo-chromen-8-yl]ethylamino]benzoic acid, Isomer 2,2,2,2-trifluoroacetic acid], the IC50 in assay [1] is less than 500 nM; in assay [2], 1000 to 5000 nM; in assay [3] (setting [4]) it was 50 to 100 nM.
The like results for `Cc1cc(C(C)Nc2ccccc2C(=O)O)c2oc(-c3cnn(-c4ccccc4)c3)cc(=O)c2c1` (single isomer, unassigned) [Example 80, 2-[1-[6-Methyl-4-oxo-2-(1-phenylpyrazol-4-yl)chromen-8-yl]ethylamino]benzoic acid, Isomer 2,2,2,2-trifluoroacetic acid] were, in that order, less than 500 nM, 5000 to 10000 nM and less than 50 nM.
The like results for `COc1ccc(-n2cc(-c3cc(=O)c4cc(C)cc(C(C)Nc5ccccc5C(=O)O)c4o3)cn2)cn1` (single isomer, unassigned) [Example 81, 2-[1-[2-[1-(6-Methoxy-3-pyridyl)pyrazol-4-yl]-6-methyl-4-oxo-chromen-8-yl]ethylamino]benzoic acid, Isomer 2,2,2,2-trifluoroacetic acid] were, in that order, 500 to 1000 nM, 5000 to 10000 nM and 50 to 100 nM.
The like results for `Cc1cc(C(C)Nc2ccccc2C(=O)O)c2oc(-c3cnn(-c4ccc(C#N)nc4)c3)cc(=O)c2c1` (single isomer, unassigned) [Example 82, 2-[1-[2-[1-(6-Cyano-3-pyridyl)pyrazol-4-yl]-6-methyl-4-oxo-chromen-8-yl]ethylamino]benzoic acid, Isomer 2,2,2,2-trifluoroacetic acid] were, in that order, less than 500 nM, 1000 to 5000 nM and 50 to 100 nM.
On to `Cc1cc(C(C)Nc2ccccc2C(=O)O)c2oc(-c3cnn(-c4ccc(C#N)cn4)c3)cc(=O)c2c1` (single isomer, unassigned) [Example 83, 2-[1-[2-[1-(5-Cyano-2-pyridyl)pyrazol-4-yl]-6-methyl-4-oxo-chromen-8-yl]ethylamino]benzoic acid, Isomer 2,2,2,2-trifluoroacetic acid], for which the half-inhibitory concentration (IC50) in assay [1] was less than 500 nM; in assay [2], more than 10000 nM; in assay [3] (setting [4]), 50 to 100 nM.
Taken in the same sequence, the figures for `Cc1cc(C(C)Nc2ccccc2C(=O)O)c2oc(-c3cnn(-c4ccc(C#N)c(F)c4)c3)cc(=O)c2c1` (single isomer, unassigned) [Example 85, 2-[1-[2-[1-(4-Cyano-3-fluoro-phenyl)pyrazol-4-yl]-6-methyl-4-oxo-chromen-8-yl]ethylamino]benzoic acid, Isomer 2,2,2,2-trifluoroacetic acid] were less than 500 nM, 1000 to 5000 nM and 100 to 500 nM.
The like results for `COc1ccc(-n2cc(-c3cc(=O)c4cc(C)cc(C(C)Nc5ccccc5C(=O)O)c4o3)cn2)cc1C#N` (single isomer, unassigned) [Example 86, 2-[1-[2-[1-(3-Cyano-4-methoxy-phenyl)pyrazol-4-yl]-6-methyl-4-oxo-chromen-8-yl]ethylamino]benzoic acid, Isomer 2,2,2,2-trifluoroacetic acid] were, in that order, less than 500 nM, 1000 to 5000 nM and 100 to 500 nM.
The like results for `Cc1cc(C(C)Nc2ccccc2C(=O)O)c2oc(-c3ccc(C4(C#N)CC4)nc3)c(C)c(=O)c2c1` (single isomer, unassigned) [Example 89, 2-[1-[2-[6-(1-Cyanocyclopropyl)-3-pyridyl]-3,6-dimethyl-4-oxo-chromen-8-yl]ethylamino]benzoic acid, Isomer 1,2,2,2-trifluoroacetic acid] were, in that order, less than 500 nM, 1000 to 5000 nM and less than 50 nM.
For the compound `Cc1cc(C(C)Nc2ccc(Cl)nc2C(=O)O)c2oc(-c3ccccn3)c(C)c(=O)c2c1` (single isomer, unassigned) [Example 121, 6-Chloro-3-[1-[3,6-dimethyl-4-oxo-2-(2-pyridyl)chromen-8-yl]ethylamino]pyridine-2-carboxylic acid, Isomer 1,2,2,2-trifluoroacetic acid], the concentration for half-maximal inhibition (IC50) in assay [1] is less than 500 nM; in assay [2], 1000 to 5000 nM; in assay [3] (setting [4]), less than 50 nM.
Taken in the same sequence, the figures for `Cc1cc(C(C)Nc2ccccc2C(=O)O)c2oc(-c3cn(-c4ccc(C#N)cc4)nn3)cc(=O)c2c1` (single isomer, unassigned) [Example 124, 2-[1-[2-[1-(4-Cyanophenyl)triazol-4-yl]-6-methyl-4-oxo-chromen-8-yl]ethylamino]benzoic acid, Isomer 2,2,2,2-trifluoroacetic acid] were less than 500 nM, 1000 to 5000 nM and 50 to 100 nM.
On to `Cc1cc(C(C)Nc2ccccc2C(=O)O)c2oc(-c3cncc(C#N)c3)c(C)c(=O)c2c1` (single isomer, unassigned) [Example 125, 2-[1-[2-(5-Cyano-3-pyridyl)-3,6-dimethyl-4-oxo-chromen-8-yl]ethylamino]benzoic acid, Isomer 1,2,2,2-trifluoroacetic acid], for which the IC50 was less than 500 nM in assay [1], 500 to 1000 nM in assay [2] and less than 50 nM in assay [3] (setting [4]).
The like results for `Cc1cc(C(C)Nc2ccccc2C(=O)O)c2oc(-c3cnc(-c4ccccc4)s3)c(C)c(=O)c2c1` (single isomer, unassigned) [Example 126, 2-[1-[3,6-Dimethyl-4-oxo-2-(2-phenylthiazol-5-yl)chromen-8-yl]ethylamino]benzoic acid, Isomer 1,2,2,2-trifluoroacetic acid] were, in that order, less than 500 nM, less than 500 nM and 50 to 100 nM.
In the case of `Cc1cc(C(C)Nc2ccccc2C(=O)O)c2oc(-c3cncc(-n4cccn4)c3)c(C)c(=O)c2c1` (single isomer, unassigned) [Example 127, 2-[1-[3,6-Dimethyl-4-oxo-2-(5-pyrazol-1-yl-3-pyridyl)chromen-8-yl]ethylamino]benzoic acid, Isomer 1,2,2,2-trifluoroacetic acid], the values for the IC50 in assay [1], in assay [2] and in assay [3] (setting [4]) were less than 500 nM, 1000 to 5000 nM and less than 50 nM, respectively.
For `COc1ccc(-c2cc(=O)c3cc(C)cc(C(C)Nc4ccccc4C(=O)O)c3o2)cn1` (single isomer, unassigned; isomer 1) [Example 19, 2-[1-[2-(6-Methoxy-3-pyridyl)-6-methyl-4-oxo-chromen-8-yl]ethylamino]benzoic acid, Isomer 1], the IC50 in assay [1] was 5000 to 10000 nM; in assay [2] it was more than 10000 nM; in assay [3] (0% FBS, 3 hours treatment, read-out: PI3K-α (PIK3CA) in vitro cell based assay IC50), more than 500 nM.
